{"source": "patent US9931335B2", "about": "“Desethylhydroxychloroquine for the treatment of diseases associated with inflammation” (The Board of Trustees of the Leland Stanford Junior …, priority 2013, dated 2018)", "key": {"[1]": {"tested_on": "experimental autoimmune encephalomyelitis (EAE) in SJL mice", "experiment": "EAE mouse model for MS, prevention (treatment from immunization)", "type": "in vivo", "settings": "for EAE clinical score (development and severity): 100 mg/kg/day oral gavage from immunization, 50 mg/kg/day from day 8, vs vehicle or BDCQ, P<0.05", "description": "Experimental autoimmune encephalomyelitis (EAE), a mouse model for MS, was induced in SJL mice (n=10 per group) by immunization with proteolipid protein peptide 139-151 (PLP 139-151) in CFA. […] Starting on day 8, mice were scored daily for the severity of EAE."}, "[2]": {"tested_on": "DMM-induced OA in C57BL6 (B6) mice", "experiment": "Destabilization of the medial meniscus (DMM) mouse model of osteoarthritis", "type": "in vivo", "settings": "3 months, vs vehicle; for Cartilage Degeneration Score (OA score): aminoquinolines 100 mg/kg/day, atorvastatin 40 mg/kg/day, oral gavage from 1 week after DMM, two-tailed T test", "description": "One week following surgical induction, treatment was initiated with vehicle control, hydroxychloroquine (HCQ), or desethylhydroxychloroquine (DHCQ) dosed at 100 mg/kg/day by oral gavage (once per day). After 3 months, mice were sacrificed, joints harvested, joint sections cut, and tissue sections stained with safranin-O. An examiner blinded to treatment used microscopy to score the severity of OA. The “Cartilage Degeneration Score” (also known as the “OA score”, “Severity Score” and “Histology Score”) was determined by a blinded examiner, and the two-tailed T test used to determine if there were statistical differences in the Cartilage Degeneration Scores between groups.\nThe histologic sections generated at the termination of the mouse OA experiment presented above and in FIG. 5 were subject to blinded scoring for the “Osteophyte Score” (measure of the amount of osteophyte or ectopic bone formation) and “Synovitis Score” (measure of the amount of synovial and joint inflammation). The scores between groups were compared by two-tailed T test.\nExperiments were performed under protocols approved by the Stanford University Committee of Animal Research and in accordance with NIH guidelines. Murine OA was generated by surgically by destabilization of the DMM (Glasson, S., S., et al., Osteoarthritis Cartilage, 15: 1061-1069 (2007)).\nMice were euthanized 3 months after surgery. Their stifle joints were decalcified in EDTA solution, fixed in 4% paraformaldehyde, and embedded in paraffin. Serial 4 micron sections were cut and stained with toluidine blue. Scoring of arthritis in these histology sections was done according to a modified version of previously described composite scoring systems (Kamekura, S., et al. Osteoarthritis Cartilage 13: 632-641 (2005); Bendele, A. M., J Musculoskelet Neuronal Interact., 1: 363-376 (2001)). The “OA Score” was calculated as follows: cartilage degeneration (0-4) was multiplied by the width (1=1/3, 2=2/3, and 3=3/3 of surface area) of each third of the femoral-medial and tibial-medial condyles, and the scores for the 6 regions were summed. To evaluate osteophyte (ectopic bone) formation, we scored toluidine-blue-stained sections according to a previously described scoring system (Kamekura, S., et al. Osteoarthritis development in novel experimental mouse models induced by knee joint instability. Osteoarthritis Cartilage 13, 632-641 (2005)): 0, none; 1, formation of cartilage-like tissues; 2, increase of cartilaginous matrix; 3, endochondral ossification. To evaluate synovitis, we scored H&E-stained sections according to a previously described scoring system (Blom, A. B., et al. Synovial lining macrophages mediate osteophyte formation during experimental osteoarthritis. Osteoarthritis Cartilage 12, 627-635 (2004)): 0, no changes compared to normal joints; 1, thickening of the synovial lining and some influx of inflammatory cells; 2, thickening of the synovial lining and intermediate influx of inflammatory cells; and 3, profound thickening of the synovial lining (more than four cell layers) and maximal observed influx of inflammatory cells. Scores for osteophyte formation and synovitis were recorded for the femoral-medial and the tibial-medial condyles on the operated side of the joint, and the scores for the two regions were summed and statistical comparisons performed using a two-tailed T test.\nTreatment was started 1 week after surgical induction of destabilization of the medial meniscus (DMM), a time point at which mice were at increased risk for the development of OA."}, "[3]": {"experiment": "LC/MS tissue levels of HCQ and DHCQ in plasma, retina and synovium of dosed mice", "type": "in vivo, mouse", "settings": "for accumulation in the retina: 100 mg/kg/day oral gavage, LC/MS", "description": "The major risk to long term administration of hydroxychloroquine is retinal accumulation and subsequent ocular toxicity (Terahi et al, 2008. Semin Opthal. (3):201-208. PMID). We sought to evaluate the retinal deposition of HCQ and DHCQ. To do so, we performed mass spectrometric analysis of drug and metabolite content in retina, in operated side and non-operated side synovial tissue, and in plasma derived from mice treated with either HCQ or DHCQ. […] The indicated statistical comparisons between the levels measured in the indicated tissue from each group were compared by two-tailed T test (*P<0.05, **P<0.01, ***P<0.001).\nMice, dosing with HCQ and DHCQ, isolation of specific tissues, and mass spectrometry measurement of HCQ and DHCQ levels in tissue samples. C57BL6 (B6) mice (n=5 per group) were treated with HCQ (100 mg/kg/day) or DHCQ (100 mg/kg/day) by oral gavage for 3 months. At experimental termination (3 months) mice were sacrificed and eyes removed under dissecting microscope. Curved microdisecting scissors was used to cut along the cornea and sclera, remove and discard the lens and visceral leaving the neural retina with eye shell to be placed in PBS and homogenized followed by centrifugation. Synovium was microdissected from the operated knee or the contralateral non-operated knee, normalized by weight of tissue, and placed in HPLC grade water before being homogenized and centrifuged. Plasma was obtained by tail bleeding. Plasma and tissue samples were precipitated with acetonitrile and levels of HCQ, DHCQ, BDCQ were evaluated by liquid chromatography/mass spectrometry (LC/MS) at Climax Laboratories, Inc. (San Jose, Calif.). The LC/MS analysis was conducted by using Shimazu 10A HPLC system (Shimadzu Scientific Instruments, Inc., Pleasanton, Calif.) with ACE C18, 50×2.1 HPLC column and ABSciex API-4000 Mass Spectrometer (ABSciex Corp. Foster City, Calif.) with Electrospray Ionization (ESI) and negative Multiple Reaction Monitoring (MRM) Scan. A gradient elution was used in separating the test compound with a mobile phase A (0.1% Formic Acid in 5 mM of NH4AC) and B (0.1% Formic acid in acetonitrile)."}, "[4]": {"tested_on": "ganglion cell layer (GCL) of the retina", "experiment": "Retinal histology of mice dosed for 3 months", "type": "in vivo, mouse", "settings": "for number of cells (nuclei) in the GCL vs vehicle / nuclear shrinkage in the ganglion cell layer (GCL): 100 mg/kg/day, 3 months; for nuclear shrinkage in the ganglion cell layer (GCL): H&E", "description": "At the time of termination, the eyes from each treatment group were carefully microdissected to ensure the retina remained intact, the eye was fixed in formalin, and the fixed eye sectioned to visualize the retina. […] Representative images of H&E stained retinal sections are presented from each treatment group in FIG. 17.\nUsing the histologic and quantitative pathology methodology adapted from Shichiri, et al (Shichiri, et al, JBC. 2012, 287(4):2926-34. PMID 22147702), the H&E stained retinal sections were evaluated for number of nuclei in the ganglion cell layer (GCL) (FIG. 18). The graph presents quantitation of the number of nuclei in the GCL of the retina from the indicated treatment groups. The number of cells in the GCL of the retina for each treatment group was compared with the number of cells in vehicle-treated control by two-tailed T test."}}, "note": "Entries after “also recorded” stand apart in the source; their conditions may differ.", "data": [{"smiles": "CC(CCCNCCO)Nc1ccnc2cc(Cl)ccc12", "note": "(stereo not shown) [DHCQ, desethylhydroxychloroquine]", "values": [{"measurement": "EAE clinical score (development and severity)", "setting": "[1]", "value": "prevented development of and reduced the severity of EAE"}, {"measurement": "EAE disease activity compared to HCQ treatment", "setting": "[1]; at several timepoints, P<0.05 Mann Whitney U test", "value": "statistically superior activity"}, {"measurement": "Osteophyte Score", "setting": "[2]; 100 mg/kg/day oral gavage", "value": "statistically prevented and reduced; also recorded: statistically significant protection against the development of synovitis and osteophytes"}, {"measurement": "Cartilage Degeneration Score (OA score)", "setting": "[2]", "value": "statistically prevented and reduced the severity of OA; also recorded: statistically prevented and reduced the severity of cartilage degeneration"}, {"measurement": "Synovitis Score", "setting": "[2]; oral gavage", "value": "statistically prevented and reduced; also recorded: statistically significant protection against the development of synovitis and osteophytes"}, {"measurement": "accumulation in the retina", "setting": "[3]; 3 months", "value": "only low-level accumulation in the retina"}, {"measurement": "level in surgical joint synovial tissue relative to retina", "setting": "[3]; 100 mg/kg/day, 3 months", "value": "accumulated at higher levels in the surgical joint synovial tissue relative to the low levels measured in the retina"}, {"measurement": "level in retina relative to plasma", "setting": "[3]; DHCQ in both HCQ and DHCQ dosed mice", "value": "much lower levels in plasma as compared to the retina"}, {"measurement": "number of cells (nuclei) in the GCL vs vehicle", "setting": "[4]", "value": "no reduction in the number of cells in the GCL"}, {"measurement": "nuclear shrinkage in the ganglion cell layer (GCL)", "setting": "[4]", "value": "No increase in nuclear shrinkage in the GCL"}]}, {"smiles": "CCN(CCO)CCCC(C)Nc1ccnc2cc(Cl)ccc12", "note": "(stereo not shown) [HCQ, hydroxychloroquine]", "values": [{"measurement": "EAE clinical score (development and severity)", "setting": "[1]", "value": "prevented development of and reduced the severity of EAE"}, {"measurement": "Cartilage Degeneration Score (OA score)", "setting": "[2]", "value": "only resulted in trends towards improvement; also recorded: did not result in a statistically significant reduction in the severity of OA"}, {"measurement": "Cartilage Degeneration Score (OA score)", "setting": "[2]; listed as Hydroxychloroquine", "value": "did not result in a statistically signification prevention or reduction in OA severity"}, {"measurement": "accumulation in the retina", "setting": "[3]; 3 months", "value": "accumulated a high levels in the retina"}, {"measurement": "level in surgical joint synovial tissue relative to retina", "setting": "[3]; 100 mg/kg/day, 3 months", "value": "accumulated at high levels in the retina relative to the low levels measured in the surgical joint synovial tissue"}, {"measurement": "Kp at 3 months", "setting": "[3]; C57BL6, mouse, retina/plasma, oral, HCQ in HCQ dosed mice, 100 mg/kg/day, 3 months, read-out: level in retina/level in plasma", "value": "~8.5"}, {"measurement": "number of cells (nuclei) in the GCL vs vehicle", "setting": "[4]", "value": "significantly lower"}, {"measurement": "nuclear shrinkage in the ganglion cell layer (GCL)", "setting": "[4]", "value": "increased nuclear shrinkage in the GCL"}, {"measurement": "retinal cell loss in GCL, HCQ compared to DHCQ", "setting": "[4]; P<0.05", "value": "statistically increased retinal cell loss"}]}]}
